In patent publication US10429397B2 (priority 2015, dated 2019):

Test system: HeLa cells
Experiment: Fluorescence microscopy assay of cell permeability
Assay type: cell-based
Settings: 5 mM, 1 hour, streptavidin-Cy5
Method: The cells were then incubated in serum free media for 2 hours, followed by incubation with APB (5 mM) in serum free media (500 μL) for 1 hour. […] Cells were incubate with paraformaldehyde (4%, 500 μL) for 20 minutes at room temperature, then washed with 1×PBS (500 μL) three times. […] Streptavidin Cy5 (10 ug/mL) in blocking buffer (50 μL) was added and incubated with cells for 30 minutes. […] Cells were incubated with DAPI (100 μg/mL) for 5 minutes, followed by washing with 1×PBS (500 μL) 3 times each for 5 min. The cover slips were washed in water then installed on a glass slide containing Mowiol mounting solution (50 μL, Sigma Aldrich) saturated with DABCO (Sigma Aldrich). The slide was incubate at 31° C. for 30 minutes, and then kept at 4° C. until microscopy. Fluorescence photos were generated on an Olympus fluorescence microscope using laser wavelengths corresponding to DAPI (350 nm) and Cy5 (650 nm). DAPI photos were generated at 10 ms and Cy5 at 200 ms. Merged images were created using Adobe Photoshop.

- biotin fluorescence signal in cells (cell permeability): no biotin signal
Structure (SMILES): Nc1ncnc2c1ncn2[C@@H]1O[C@H](COP(=O)(O)OP(=O)(O)OP(=O)(O)O)[C@@H](O)[C@H]1O [ATP, adenosine-5′-triphosphate, reference compound]
